Entries after “also recorded” stand apart in the source; their conditions may differ.
B1: P1: RNA aptamer SEQ ID NO: 1, mHSP70 binding aptamer internalizing upon binding mHSP70 at the cell surface (nucleic acid)
chain: GGGAGACAAGAAUAAACGCUCAAUGCGCUGAAUGCCCAGCCGUGAAAGCGUCGAUUUCCAUCCUUCGACAGGAGGCUCACAACAGGC
modifications: listed as RNA, chemistry not fully specified

Key:
[1] = bypassing dCK deficiency, reference [5]; cited from earlier work
[2] = system: PANC-1 cells; test: Flow cytometry-based binding assay, apparent dissociation constant (KD) of Cy3-labeled aptamers; details: flow cytometry MFI, one-site binding model, read-out: binding affinity (dissociation constant, KD)
Protocol: FIGS. 1A-1D. ApDCs of gemcitabine and 5-FU. (FIG. 1A) Chemical structure of gemcitabine and 5-FU prodrug (5F-dUTP). (FIG. 1B) The sequence of P19 incorporated with dFdCMP (dFdCTP) (SEQ ID NO: 18) and 5FdUMP (5FdUTP) (SEQ ID NO: 19) into P19, instead of 2′F-CTP and 2′F-UTP. (FIG. 1C) Intrinsic incorporation of active metabolites of gemcitabine (dFdCMP) and 5FdUMP in P19. M: Marker. 1:P19, 2: P19-dFdCMP, 3:P19-5FdUMP. (FIG. 1D) The dissociation constant (KD) was measured by flow cytometry using increasing concentrations of Cy3-labeled aptamers (from 15.6 to 1000 nM). Mean fluorescence intensity (MFI) was measured and calculated using a one-site binding model for non-linear regression.
FIGS. 4A-4C. […] Mean fluorescence intensity (MFI) was measured and calculated using a one-site binding model for non-linear regression. […] (FIG. 4B) The pancreatic cell lines PANC-1 and AsPC-1 were treated with 200 nM of the Cy3-labeled tP19 aptamer and analyzed by confocal microscopy. […]
Aptamer binding and uptake was also assessed by flow cytometry. […] Cells were washed with binding buffer and immediately analyzed by Fortessa flow cytometry (BD). […] The data were analyzed with FlowJo software.
To determine the apparent dissociation constant (KD) of aptamers to PANC-1 cells, the mean fluorescence intensity (MFI) was calculated for each concentration and for the unselected library controls. […]

[3] = system: Huh7, HepG2, MCF7 and PC3 cells; test: Live-cell confocal imaging, aptamer internalization in non pancreatic lines; type: cell-based; details: 200 nM Cy3-labeled aptamer
Protocol: (§1) FIGS. 4A-4C. Binding affinity and cell internalization of truncated P19 (tP19). (FIG. 4A) The dissociation constant (KD) was measured by flow cytometry using increasing concentrations of Cy3-labeled aptamers (from 15.6 to 500 nM). Mean fluorescence intensity (MFI) was measured and calculated using a one-site binding model for non-linear regression. […] (FIG. 4B) The pancreatic cell lines PANC-1 and AsPC-1 were treated with 200 nM of the Cy3-labeled tP19 aptamer and analyzed by confocal microscopy. […] (FIG. 4C) Non pancreatic lines including Huh7, HepG2, MCF7 and PC3 cells were also treated with 200 nM of Cy3-labeled tP19 and P1 aptamers. […] Dye Hoechst 33342. Scale bar: 10 μm.
(§2) For the aptamer internalization studies, 1×10^5 cells were seeded in 35 mm glass-bottom dishes (MatTek, Ashland, Mass., USA) and grown in medium for 24 hrs. The RNAs were labeled with Cy3 using the Cy3 Silencer siRNA labeling kit (Ambion, Tex., USA.). Cy3-labeled RNAs were added to the cells at 200 nM or 500 nM and incubated for 2 hour. The images were taken using a Zeiss LSM 510 Meta Inverted 2 photon confocal microscope system using a C-Apo 40x/1.2NA water immersion objective.

[4] = system: PANC-1 cells; test: Live-cell confocal imaging, aptamer internalization; type: cell-based; details: Cy3-labeled RNAs at 200 nM, 2 hour, confocal microscopy
Protocol: FIGS. 2A-2D. Cell proliferation assay of dFdC-P19-ApDC and 5FdU-P19-ApDC. (FIGS. 2A-2B) The pancreatic cell lines PANC-1 were treated with 200 nM of the Cy3-labeled dFdCMP-P19-ApDC (FIG. 2A) or 5FdUMP-P19-ApDC (FIG. 2B) and analyzed by confocal microscopy. […] Dyes: Cy3 labeled RNAs, Hoechst 33342. Scale bar: […]. (FIG. 2C) After treatment dFdCMP-P19-ApDC or 5FdUMP-P19-ApDC in PANC-1 cells for 72 hrs, cell viability was measured by MTT assay. One-way ANOVA test: ****≤0.0001, ***≤0.001. (FIG. 2D) After treatment dFdCMP-P19-ApDC or 5FdUMP-P19-ApDC in chemo-resistance AsPC-1 cells for 72 hrs, cell viability was measured by MTT assay. One-way ANOVA test: ****≤0.0001, ***≤0.001
as §1
FIGS. 5A-5D. […]

[5] = system: AsPC-1 cells; test: as above; type: cell-based; details: 200 nM Cy3-labeled aptamer, confocal microscopy
Protocol: as §1, §2

Row | Molecule | effectiveness relative to dFdC [1] | Kd [2] | internalization (Cy3 signal) in non-pancreatic cancer cell lines [3] | internalization into PANC-1 cells [4] | internalization into AsPC-1 cells [5]
1 | gemcitabine monophosphate [dFdCMP] | 4 fold | – | – | – | –
2 | tP19: truncated form of aptamer P19, SEQ ID NO: 3, 28 bps in length, mHSP70 binding aptamer (CUCAAUGGCGAAUGCCCGCCUAAUAGGG; listed as RNA, chemistry not fully specified) | – | 8.57 nM | No Cy3 signal was observed; also recorded: not in non-pancreatic cancer cell lines | internalized into PANC-1 and AsPC-1 cells | internalized into PANC-1 and AsPC-1 cells
3 | B1 | – | – | No Cy3 signal was observed | – | –
